Patent US9790211B2, “5-amino-quinoline-8-carboxamide derivatives as 5-HT4 receptor agonists” (SUVEN LIFE SCIENCES LIMITED, priority 2013, dated 2017)
Where two headings read alike, the source gives them in different places.

Tests used:
[1] = molecular target: T1, recombinant human 5-HT4 receptor (Homo sapiens, UniProt Q13639); assay: Determination of EC50 values for 5-HT4 receptor (CHO cells, pCRE-Luc reporter); format: cell-based; settings: for EC50: 4 hours incubation; for Emax: CHO
T1 construct: expressed in transfected cells
T1 sequence (Q13639 whole entry): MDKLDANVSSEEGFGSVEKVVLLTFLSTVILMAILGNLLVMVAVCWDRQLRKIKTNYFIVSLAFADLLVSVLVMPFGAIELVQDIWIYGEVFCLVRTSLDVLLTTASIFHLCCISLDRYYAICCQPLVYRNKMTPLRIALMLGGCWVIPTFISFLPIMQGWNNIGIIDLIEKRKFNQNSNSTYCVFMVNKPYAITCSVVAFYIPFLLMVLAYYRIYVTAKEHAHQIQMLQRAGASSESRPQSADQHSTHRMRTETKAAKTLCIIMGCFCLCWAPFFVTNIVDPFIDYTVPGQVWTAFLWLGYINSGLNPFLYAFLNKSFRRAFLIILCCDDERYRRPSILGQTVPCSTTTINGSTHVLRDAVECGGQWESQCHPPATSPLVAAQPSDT
Procedure, shortened: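 CHO cells stably expressing human 5-HT4 receptor with a CRE-luciferase reporter, serum-starved overnight, then exposed to increasing compound concentrations in OptiMEM for 4 h at 37 °C. Cells lysed and luciferase luminescence plotted against concentration.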

[2] = test system: Male Wistar rats; assay: Object recognition task model; format: in vivo; settings: dose mg/kg: Ex 1 0.1, Ex 2 0.03, Ex 4 0.03, Ex 13 1, Ex 23 0.01, Ex 37 10, Ex 43 0.3; for Exploration time mean ± S.E.M, Familiar object / Exploration time mean ± S.E.M, Novel object: choice trial T2, p.o.; for Inference: p.o.
Protocol: The cognition enhancing properties of compounds of this invention were estimated by using this model.
Male Wistar rats (230-280 grams) were used as experimental animals. Four animals were housed in each cage. Animals were kept on 20% food deprivation before one day and given water ad libitum throughout the experiment and maintained on a 12 hours light/dark cycle. Also the rats were habituated to individual arenas for 1 hour in the absence of any objects.
One group of 12 rats received vehicle (1 mL/Kg) orally and another set of animals received compound of the formula (I) either orally or i.p., before one hour of the familiar (T1) and choice trial (T2).
The experiment was carried out in a 50×50×50 cm open field made up of acrylic. In the familiarization phase, (T1), the rats were placed individually in the open field for 3 minutes, in which two identical objects (plastic bottles, 12.5 cm height×5.5 cm diameter) covered in yellow masking tape alone (a1 and a2) were positioned in two adjacent corners, 10 cms from the walls. After 24 hours of the (T1) trial for long-term memory test, the same rats were placed in the same arena as they were placed in T1 trial. Choice phase (T2) rats were allowed to explore the open field for 3 minutes in presence of one familiar object (a3) and one novel object (b) (Amber color glass bottle, 12 cm high and 5 cm in diameter). Familiar objects presented similar textures, colors and sizes. During the T1 and T2 trial, explorations of each object (defined as sniffing, licking, chewing or having moving vibrissae whilst directing the nose towards the object at a distance of less than 1 cm) were recorded separately by stopwatch. Sitting on an object was not regarded as exploratory activity, however, it was rarely observed.
T1 is the total time spent exploring the familiar objects (a1+a2).
T2 is the total time spent exploring the familiar object and novel object (a3+b).
The object recognition test was performed as described by Behaviour Brain Research, (1988), 31, 47-59.

[3] = Rodent brain penetration study; format: in vivo, Male Wistar rats; settings: 3 mg/kg oral (gavage)
Protocol: Male Wistar rats (225±25 grams) were used as experimental animals. Three animals were housed in each cage. Animals were given water and food ad libitum throughout the experiment and maintained on a 12 hours light/dark cycle. Brain penetration was determined in discrete manner in rats. One day prior to dosing day, male wistar rats (225-250 grams) were acclimatized. After acclimatization the rats were grouped according to their weight. In each group, 3 animals were kept in individual cage and allowed free access to food and water. At each time point (0.50, 1, and 2 hours) n=3 animals were used. The compounds of formula (I) were suitably preformulated and administered orally at (free base equivalent) 3 mg/kg. Blood samples were removed via, cardiac puncture by using isoflurane anesthesia. The animals were sacrificed to collect brain tissue. Plasma was separated and brain samples were homogenized and stored frozen at −20° C. until analysis. The concentrations of the compounds of formula (I) in plasma and brain were determined using LC-MS/MS method. The compounds of formula (I) were quantified in plasma and brain homogenate by qualified LC-MS/MS method using suitable extraction technique. The compounds of formula (I) were quantified in the calibration range of 1-500 ng/mL in plasma and brain homogenate. Study samples were analyzed using calibration samples in the batch and quality control samples spread across the batch. Extent of brain-plasma ratio was calculated (Cb/Cp).

[4] = Rodent pharmacokinetic study; format: in vivo, Male wistar rats; settings: plasma, Wistar/Male rat; for bioavailability: 3 mg/kg oral vs 1 mg/kg intravenous
Protocol: Male wistar rats (225±25 grams) were used as experimental animals. Three to five animals were housed in each cage. Two days prior to dosing day, male wistar rats (225-250 grams) were anesthetized with isoflurane for surgical placement of jugular vein catheter. Animals were fasted over night before oral dosing (p.o) and food pellets were allowed 2 hours post dosing, whereas during intravenous dosing food and water were provided as ad libitum. Three rats were dosed with compounds of formula (I) (3 mg/kg) orally and intravenously (1 mg/kg).
At each time point blood was collected through jugular vein and immediately replenish with an equivalent volume of normal saline from freely moving rats. Collected blood was transferred into a labeled eppendr off containing 10 μL of heparin as anticoagulant. Typically blood samples were collected as following time points: Pre dose, 0.08 (only i.v.), 0.25, 0.5, 1, 2, 4, 6, 8, and 24 hours post dose (n=3). Blood was centrifuged at 4000 rpm for 10 minutes. Plasma was prepared and stored frozen at −20° C. until analysis. The concentrations of the compounds of formula (I) were quantified in plasma by qualified LC-MS/MS method using suitable extraction technique. The compounds of formula (I) were quantified in the calibration range around 2-2000 ng/mL in plasma. Study samples were analyzed using calibration samples in the batch and quality control samples spread across the batch.
Pharmacokinetic parameters Cmax, Tmax, AUC1, T1/2 and Bioavailability were calculated by non-compartmental model using standard non-coinpartmental model by using WinNonLin 5.0.1 or Phoenix WinNonlin 6.2 version Software package.

[5] = CHO cells, human 5-HT4 receptor, luciferase reporter

| Structure (SMILES) | EC50 [1, 5] | Emax ([1]; CHO cells, human 5-HT4 receptor, luciferase reporter, read-out: Emax) | Exploration time mean ± S.E.M, Familiar object [2] | Exploration time mean ± S.E.M, Novel object [2] | Inference [2] | Single dose Brain Penetration (Cb/Cp) ([3]; Wistar/Male rat) | Cmax ([4]; 1 mg/kg intravenous (bolus)) | Tmax ([4]; 1 mg/kg intravenous (bolus)) | half-life ([4]; 1 mg/kg intravenous (bolus)) | AUC(0-t) ([4]; 3 mg/kg oral (gavage)) | Cmax ([4]; 3 mg/kg oral (gavage)) | Tmax ([4]; 3 mg/kg oral (gavage)) | half-life ([4]; 3 mg/kg oral (gavage)) | bioavailability [4] | Emax [1] | Kp ([3]; male, Wistar, rat, brain, po, 3 mg/kg, read-out: Single dose Brain Penetration (Cb/Cp)) | AUC(0-t) ([4]; 1 mg/kg intravenous (bolus)) |
| --- | --- | --- | --- | --- | --- | --- | --- | --- | --- | --- | --- | --- | --- | --- | --- | --- | --- |
| Nc1c(Cl)cc(C(=O)NCC2CCN(CC3CCOCC3)CC2)c2ncccc12.O=C(O)/C=C/C(=O)O [Example 1, 5-Amino-6-chloro-N-{[1-(tetrahydro-2H-pyran-4-ylmethyl)-4-piperidinyl]methyl}quinoline-8-carboxamide hemifumarate] | 0.04 nM | 76% | 5.94 ± 0.71 s | 16.09 ± 1.75 s | Active | 0.48 ± 0.03 | 149 ± 6 ng/mL | 4.8 min | 114 ± 42 min | 240 ± 35 ng·h/mL | 121 ± 25 ng/mL | 25.2 ± 8.4 min | 240 ± 66 min | 51 ± 5% | – | – | – |
| Nc1c(Cl)cc(C(=O)NCC2CCN(CC3CCOCC3)CC2)c2ncccc12.O=C(O)C(O)C(O)C(=O)O [Example 13, 5-Amino-6-chloro-N-{[1-(tetrahydro-2H-pyran-4-ylmethyl)-4-piperidinyl]methyl} quinoline-8-carboxamide L(+)-tartarate] | 0.09 nM | – | 8.64 ± 1.33 s | 15.11 ± 1.81 s | Active | – | 168 ± 12 ng/mL | 4.8 min | 90 ± 18 min | 235 ± 25 ng·h/mL | 76 ± 3 ng/mL | 30 min | 102 ± 18 min | 37 ± 4% | 70% | 0.41 ± 0.04 | 211 ± 20 ng·h/mL |
